Among the data in ChEMBL document CHEMBL4184088, “Synthesis and biological evaluation of novel doxorubicin-containing ASGP-R-targeted drug-conjugates” (Bioorg Med Chem Lett, 2018) are Activity and Drug uptake values, retold here.

For data set [1], the system named is HepG2. As to the kind of experiment: Cytotoxicity against human HepG2 cells assessed as reduction in cell viability at 100 umol after 48 hrs by MTS assay relative to control. It is filed as functional. In general terms: Formazan colour is commonly taken as a measure of viable cells.
Data set [2] is described as follows: Drug uptake in human HEK293 cells assessed as assessed as doxorubicin conjugates accumulation at 10 uM after 6 hrs by fluorescence assay. It is filed as ADME, cell-based. Conditions: hek293, 6 h.
A short description of data set [3]: Drug localization in human HepG2 cell cytoplasm at assessed as doxorubicin conjugates accumulation 10 uM after 24 hrs by DAPI staining-based fluorescence microscopic analysis. It is filed as ADME. As to conditions: hepg2, 24 h.
Data set [4] is described as follows: Drug uptake in human HepG2 cells assessed as doxorubicin conjugates accumulation at 10 uM after 6 hrs by fluorescence assay. It is filed as ADME, cell-based. As to conditions: hepg2, 6 h.
Data set [5] has as its system HepG2. As to the kind of experiment: Cytotoxicity against human HepG2 cells assessed as cell viability up to 70 uM after 2 hrs by MTS assay. It is filed as functional, cell-based.
A short description of data set [6]: Drug uptake in human HEK293 cells assessed as doxorubicin conjugates accumulation at 10 uM after 24 hrs by fluorescence assay. It is filed as ADME, cell-based. As to conditions: hek293, 24 h.
The nature of data set [7]: Drug localization in human HepG2 cell nucleus assessed as doxorubicin conjugates accumulation at 10 uM after 24 hrs by DAPI staining-based fluorescence microscopic analysis. It is filed as ADME. As to conditions: hepg2, 24 h.
The test system of data set [8] is HepG2. In words: Cytostatic activity against human HepG2 cells assessed as cell viability at 0.02 to 70 uM after 48 hrs by MTS assay. It is filed as functional, cell-based.

Activity calls are given as the source filed them. The calls are words filed in the database; no cut-off is given here.

As to `C=CCO[C@@H]1O[C@H](Cn2cc(CCCC(=O)N[C@H]3C[C@H](O[C@H]4C[C@](O)(C(=O)CO)Cc5c(O)c6c(c(O)c54)C(=O)c4c(OC)cccc4C6=O)O[C@@H](C)[C@H]3O)nn2)[C@H](O)[C@H](O)[C@H]1NC(C)=O`, the Activity in the data set with HepG2 [1] was 20 - 30%. For the same compound, the Drug uptake result in data set [2], in data set [3] and in data set [4] was “Active” in each case. Besides, the result with HepG2 [5] was inactive.

For `COc1cccc2c1C(=O)c1c(O)c3c(c(O)c1C2=O)C[C@@](O)(C(=O)CO)C[C@@H]3O[C@H]1C[C@H](NC(=O)CCCc2cn(CCO[C@@H]3O[C@H](CO)[C@H](O)[C@H](O)[C@H]3NC(C)=O)nn2)[C@H](O)[C@H](C)O1`, in the data set on HepG2 [1], the Activity was 20 - 30%. The Drug uptake result in data set [2], in data set [3] and in data set [4] was “Active” throughout. The result in the data set with HepG2 [5] was inactive.

For the compound `COc1cccc2c1C(=O)c1c(O)c3c(c(O)c1C2=O)C[C@@](O)(C(=O)CO)C[C@@H]3O[C@H]1C[C@H](NC(=O)CCCc2cn([C@@H]3O[C@H](CO)[C@H](O)[C@H](O)[C@H]3NC(C)=O)nn2)[C@H](O)[C@H](C)O1`, the Drug uptake entry in data set [6], in data set [2], in data set [3] and in data set [4] was “Active” in each case. The Activity in the data set with HepG2 [1] is given as 20 - 30%. Further, in the data set with HepG2 [5], the outcome was inactive.

Take `COc1cccc2c1C(=O)c1c(O)c3c(c(O)c1C2=O)C[C@@](O)(C(=O)CO)C[C@@H]3O[C@H]1C[C@H](N)[C@H](O)[C@H](C)O1.Cl` [DOXORUBICIN HYDROCHLORIDE]: the Drug uptake result in data set [7] and in data set [4] was “Not Active” throughout. The outcome in the data set with HepG2 [8] was Active. The result in the data set with HepG2 [5] was inactive.
